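Interpolation was linear, between the two tested concentrations surrounding the appropriate level; five concentrations were tested over 48 hours in 96-well plates. The concentration for 50% growth inhibition is given as GI50.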 The source made the active and inactive calls. Cut-off read from the data, not from the text of the source: active = GI50 up to about 1.1 µM and inactive = higher.
Assays:
Test in all cases: NCI tumour cell line growth inhibition, 48 h
RPMI-8226 = tested on: RPMI-8226
NCI-H226 = tested on: NCI-H226
SNB-75 = tested on: SNB-75
COLO 205 = tested on: COLO 205
HL-60 = tested on: HL-60
Malme-3M = tested on: Malme-3M
M14 = tested on: M14
OVCAR-4 = tested on: OVCAR-4
SF-539 = tested on: SF-539
SF-295 = tested on: SF-295
RXF 393 = tested on: RXF 393
HT-29 = tested on: HT-29
CAKI-1 = tested on: CAKI-1
HCC 2998 = tested on: HCC 2998
U-251 = tested on: U-251
TK-10 = tested on: TK-10
NCI-H522 = tested on: NCI-H522

Measured: GI50

Cc1nc(N2N=C(c3ccc(Cl)cc3)CCC2=O)sc1[N+](=O)[O-]
inactive: RPMI-8226 > 100 µM | NCI-H226 > 100 µM | SNB-75 > 100 µM | COLO 205 > 100 µM | HL-60 > 100 µM | Malme-3M > 100 µM | M14 > 100 µM | OVCAR-4 > 100 µM | SF-539 > 100 µM | SF-295 > 100 µM | RXF 393 > 100 µM | HT-29 > 100 µM | CAKI-1 > 100 µM | HCC 2998 > 100 µM | U-251 > 100 µM | TK-10 > 100 µM | NCI-H522 > 100 µM

O=C(NNC(=O)/C(=C/c1cccc([N+](=O)[O-])c1)NC(=O)c1ccccc1)Nc1ccc(Cl)cc1
inactive: RPMI-8226 9.55 µM | NCI-H226 15.1 µM | SNB-75 13.6 µM | COLO 205 13.4 µM | HL-60 6.5 µM | Malme-3M 14.2 µM | M14 12.8 µM | OVCAR-4 11.2 µM | SF-539 16.7 µM | SF-295 18.7 µM | RXF 393 11 µM | HT-29 14.1 µM | CAKI-1 19.9 µM | HCC 2998 13.1 µM | U-251 14.2 µM | TK-10 15.5 µM | NCI-H522 12.3 µM

[O-][Cl+3]([O-])([O-])[O-].c1ccc(C[P+]2(c3ccccc3)CCCCC2)cc1
inactive: RPMI-8226 34.7 µM | NCI-H226 > 100 µM | SNB-75 88.9 µM | COLO 205 34 µM | HL-60 29.4 µM | Malme-3M > 100 µM | M14 > 100 µM | OVCAR-4 > 100 µM | SF-539 > 100 µM | SF-295 > 100 µM | RXF 393 > 100 µM | HT-29 72.8 µM | HCC 2998 70.8 µM | U-251 38.4 µM | TK-10 > 100 µM | NCI-H522 34.5 µM

O=C(Nc1cccc(C(F)(F)F)c1)C(=O)C1NC(=S)NC1=O (stereo unspecified)
inactive: RPMI-8226 > 100 µM | NCI-H226 > 100 µM | SNB-75 > 100 µM | COLO 205 39 µM | HL-60 > 100 µM | Malme-3M > 100 µM | M14 > 100 µM | OVCAR-4 > 100 µM | SF-539 > 100 µM | SF-295 > 100 µM | RXF 393 > 100 µM | HT-29 61.9 µM | CAKI-1 > 100 µM | HCC 2998 > 100 µM | TK-10 > 100 µM

Cc1ccc(S(=O)(=O)NC(=O)NCCc2ccccc2)cc1
inactive: RPMI-8226 > 100 µM | NCI-H226 > 100 µM | SNB-75 68.2 µM | COLO 205 > 100 µM | HL-60 74.1 µM | Malme-3M > 100 µM | M14 > 100 µM | OVCAR-4 > 100 µM | SF-539 > 100 µM | SF-295 > 100 µM | RXF 393 77.6 µM | CAKI-1 > 100 µM | HCC 2998 > 100 µM | U-251 > 100 µM | TK-10 > 100 µM | NCI-H522 73.8 µM

Reference: ChEMBL document CHEMBL1201862, “PubChem BioAssay data set” (2004)
